The IC50 is the concentration at which inhibition is half-maximal. A lower IC50 goes with inhibition by little substance.

This passage reports IC50 results from US20260132127A1, “NOVEL SPIRO COMPOUND” (MITSUBISHI TANABE PHARMA CORPORATION, priority 2021, published 2026).

This experiment has as its target T1, human TRH-DE (Homo sapiens, UniProt Q9UKU6).
T1 construct: expressed in transfected cells; host or cells: Expi 293 cells (transient expression), membrane fraction
T1 sequence (Q9UKU6 1-1069): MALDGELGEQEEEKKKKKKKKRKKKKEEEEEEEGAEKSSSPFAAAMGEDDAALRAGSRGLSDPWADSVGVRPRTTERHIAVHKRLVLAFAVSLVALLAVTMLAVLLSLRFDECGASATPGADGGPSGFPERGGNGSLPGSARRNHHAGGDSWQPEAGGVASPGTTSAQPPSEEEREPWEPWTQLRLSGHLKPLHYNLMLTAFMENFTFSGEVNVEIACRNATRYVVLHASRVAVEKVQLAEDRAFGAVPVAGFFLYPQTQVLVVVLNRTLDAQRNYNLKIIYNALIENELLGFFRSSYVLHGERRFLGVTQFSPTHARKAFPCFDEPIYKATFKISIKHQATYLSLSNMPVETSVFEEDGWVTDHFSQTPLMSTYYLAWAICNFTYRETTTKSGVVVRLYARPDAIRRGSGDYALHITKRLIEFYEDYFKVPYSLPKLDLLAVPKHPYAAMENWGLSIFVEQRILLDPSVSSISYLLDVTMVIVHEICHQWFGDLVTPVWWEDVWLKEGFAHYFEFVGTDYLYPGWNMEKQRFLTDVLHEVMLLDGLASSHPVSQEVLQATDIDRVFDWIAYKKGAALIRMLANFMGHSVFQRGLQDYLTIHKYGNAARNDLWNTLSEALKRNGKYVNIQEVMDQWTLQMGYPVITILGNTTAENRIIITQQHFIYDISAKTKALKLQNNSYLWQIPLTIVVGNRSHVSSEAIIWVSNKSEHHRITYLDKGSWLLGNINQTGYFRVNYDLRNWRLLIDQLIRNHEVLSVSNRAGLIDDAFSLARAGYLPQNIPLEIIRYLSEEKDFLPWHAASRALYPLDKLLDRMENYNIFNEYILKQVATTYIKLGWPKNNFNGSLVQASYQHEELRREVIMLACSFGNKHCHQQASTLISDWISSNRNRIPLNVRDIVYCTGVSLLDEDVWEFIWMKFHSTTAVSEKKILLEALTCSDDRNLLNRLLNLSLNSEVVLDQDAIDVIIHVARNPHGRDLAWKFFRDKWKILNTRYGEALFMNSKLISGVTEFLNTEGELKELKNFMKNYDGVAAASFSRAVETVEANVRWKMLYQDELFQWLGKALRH
Put plainly: TRH-DE inhibition test (RapidFire MS measurement of product Cyclo (His-Pro)). Format: biochemical. As to conditions: membrane fraction of Expi 293 cells expressing human TRH-DE; 10 μM TRH substrate; room temperature, 2 hours; 16-point concentration test. In outline: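 Membrane fraction from Expi 293 cells transiently expressing human TRH-DE, at 4 μg/ml in phosphate buffer pH 7.4 with 200 μM bacitracin, reacted with compound and 10 μM substrate for 2 h at room temperature. Cyclo(His-Pro) measured by RapidFire MS against an isotope internal standard. IC50 from 16-point curves.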
With `C[C@@H]1Cn2nc(F)c(C3CC3)c2C(=O)N1C1CC2(C1)CN(S(=O)(=O)c1ccccc1F)C2` [Example 327], the IC50 was 6 nM.
To `C[C@@H]1Cn2cnc(C3CC3)c2C(=O)N1C1CC2(C1)CN(S(=O)(=O)c1ccccc1F)C2` [Example 328] belongs 14 nM; to `Cc1nc(C2CC2)c2n1C[C@@H](C)N(C1CC3(C1)CN(S(=O)(=O)c1ccccc1F)C3)C2=O` [Example 329], 67 nM.
To `C[C@@H]1Cn2cc(C3CC3)nc2C(=O)N1C1CC2(C1)CN(S(=O)(=O)c1ccccc1F)C2` [Example 330] belongs 19 nM; to `C[C@@H]1COc2nc(C3CC3)ncc2C(=O)N1C1CC2(C1)CN(S(=O)(=O)c1ccccc1F)C2` [Example 331, (7R)-2-cyclopropyl-6-[2-(2-fluorophenyl)sulfonyl-2-azaspiro[3.3]heptan-6-yl]-7-methyl-7,8-dihydropyrimido[5,4-f][1,4]oxazepin-5-one], 3 nM.
In turn, `C[C@@H]1COc2cc(C#N)cnc2C(=O)N1C1CC2(C1)CN(S(=O)(=O)c1ccccc1F)C2` [Example 332, (3R)-4-[2-(2-fluorophenyl)sulfonyl-2-azaspiro[3.3]heptan-6-yl]-3-methyl-5-oxo-2,3-dihydropyrido[2,3-f][1,4]oxazepin-8-carbonitrile] came in with an IC50 of 4 nM.
The same measure for `C[C@@H]1COc2ncc(C#N)cc2C(=O)N1C1CC2(C1)CN(S(=O)(=O)c1ccccc1F)C2` [Example 333, (3R)-4-[2-(2-fluorophenyl)sulfonyl-2-azaspiro[3.3]heptan-6-yl]-3-methyl-5-oxo-2,3-dihydropyrido[3,2-f][1,4]oxazepin-7-carbonitrile]: 18 nM.
Molecule `Cc1nc2c(cc1C#N)C(=O)N(C1CC3(C1)CN(S(=O)(=O)c1ccccc1F)C3)[C@H](C)CO2` [Example 334] yielded an IC50 of 18 nM.
As to `CC(=O)c1cnc2c(c1)OC[C@@H](C)N(C1CC3(C1)CN(S(=O)(=O)c1ccccc1F)C3)C2=O` [Example 336], the half-inhibitory concentration (IC50) stood at 2 nM.
Take `C[C@@H]1COc2cc(C(F)(F)F)cnc2C(=O)N1C1CC2(C1)CN(S(=O)(=O)c1ccccc1F)C2` [Example 337]: the midpoint of inhibition, the IC50, lay at 2 nM.
The molecule `C[C@@H]1CNc2cccnc2C(=O)N1C1CC2(C1)CN(S(=O)(=O)c1ccccc1F)C2` [Example 338, (3R)-4-[2-(2-fluorophenyl)sulfonyl-2-azaspiro[3.3]heptan-6-yl]-3-methyl-2,3-dihydro-1H-pyrido[3,2-e][1,4]diazepin-5-one] yielded a half-inhibitory concentration (IC50) of 4 nM.
The same measure for `CC1CCc2[nH]c(=O)ccc2C(=O)N1C1CC2(C1)CN(S(=O)(=O)c1ccccc1F)C2` (centres unmarked) [Example 339, 6-[2-(2-fluorophenyl)sulfonyl-2-azaspiro[3.3]heptan-6-yl]-7-methyl-1,7,8,9-tetrahydropyrido[3,2-c]azepin-2,5-dione]: 78 nM; for `C[C@@H]1COc2nc(C(F)F)cnc2C(=O)N1C1CC2(C1)CN(S(=O)(=O)c1ccccc1F)C2` [Example 341, (7R)-3-(difluoromethyl)-8-[2-(2-fluorophenyl)sulfonyl-2-azaspiro[3.3]heptan-6-yl]-7-methyl-6,7-dihydropyrazino[2,3-f][1,4]oxazepin-9-one]: 5 nM; for `C[C@@H]1CCn2c(C3CC3)nc(C(F)F)c2C(=O)N1C1CC2(C1)CN(S(=O)(=O)c1ccccc1F)C2` [Example 342, (7R)-3-cyclopropyl-1-(difluoromethyl)-8-[2-(2-fluorophenyl)sulfonyl-2-azaspiro[3.3]heptan-6-yl]-7-methyl-6,7-dihydro-5H-imidazo[1,5-a][1,4]diazepin-9-one]: 50 nM.
`CC1Cc2cc(C(F)(F)F)ncc2C(=O)N1C1CC2(C1)CN(S(=O)(=O)c1ccccc1F)C2` (centres unmarked) [Example 343, 2-[2-(2-fluorophenyl)sulfonyl-2-azaspiro[3.3]heptan-6-yl]-3-methyl-6-(trifluoromethyl)-3,4-dihydro-2,7-naphthyridin-1-one] gave a 50% inhibitory concentration (IC50) of 18 nM. Compared with the last molecule, the IC50 is about 2.8-fold lower.
In the case of `CC1(C)Oc2cc(Cl)ncc2C(=O)N1C1CC2(C1)CN(S(=O)(=O)c1ccccc1F)C2` [Example 344, 7-chloro-3-[2-(2-fluorophenyl)sulfonyl-2-azaspiro[3.3]heptan-6-yl]-2,2-dimethyl-pyrido[3,4-e][1,3]oxazin-4-one], half-maximal inhibition (IC50) required 75 nM.
In turn, `C[C@@H]1Cn2c(ccc2C(F)(F)F)C(=O)N1C1CC2(C1)CN(S(=O)(=O)c1ccccc1F)C2` [Example 345, (3R)-2-[2-(2-fluorophenyl)sulfonyl-2-azaspiro[3.3]heptan-6-yl]-3-methyl-6-(trifluoromethyl)-3,4-dihydropyrrolo[1,2-a]pyrazin-1-one] yielded an IC50 of 167 nM. This IC50 is about 2.2-fold higher than that of the molecule before.
In the case of `C[C@@H]1CNc2nc(C(F)(F)F)ccc2C(=O)N1C1CC2(C1)CN(S(=O)(=O)c1ccccc1F)C2` [Example 346, (3R)-4-[2-(2-fluorophenyl)sulfonyl-2-azaspiro[3.3]heptan-6-yl]-3-methyl-8-(trifluoromethyl)-2,3-dihydro-1H-pyrido[2,3-e][1,4]diazepin-5-one], inhibition was half-maximal at 2 nM (IC50).
The same measure for `Cc1nc2c(s1)C(C)N(C1CC3(C1)CN(S(=O)(=O)c1ccccc1F)C3)C2=O` (centres unmarked) [Example 347]: 185 nM; for `C[C@@H]1COc2nc(C3CCC3)ncc2C(=O)N1C1CC2(C1)CN(S(=O)(=O)c1ccccc1F)C2` [Example 367]: 8 nM; for `CCc1ncc2c(n1)OC[C@@H](C)N(C1CC3(C1)CN(S(=O)(=O)c1ccccc1F)C3)C2=O` [Example 368]: 13 nM.
To `CC(C)Oc1ncc2c(n1)OC[C@@H](C)N(C1CC3(C1)CN(S(=O)(=O)c1ccccc1F)C3)C2=O` [Example 369, (7R)-6-[2-(2-fluorophenyl)sulfonyl-2-azaspiro[3.3]heptan-6-yl]-7-methyl-2-propan-2-yloxy-7,8-dihydropyrimid[5,4-f][1,4]oxazepin-5-one] belongs 8 nM.
In turn, `COc1ncc2c(n1)OC[C@@H](C)N(C1CC3(C1)CN(S(=O)(=O)c1ccccc1F)C3)C2=O` [Example 370] had an IC50 of 8 nM.
The molecule `C[C@@H]1COc2nc(OC3CCC3)ncc2C(=O)N1C1CC2(C1)CN(S(=O)(=O)c1ccccc1F)C2` [Example 371] came in with a 50% inhibitory concentration (IC50) of 5 nM.
With `C[C@@H]1COc2nc(OC3CCCC3)ncc2C(=O)N1C1CC2(C1)CN(S(=O)(=O)c1ccccc1F)C2` [Example 372], it took 4 nM to reach half-maximal inhibition (IC50). This IC50 and that of the molecule before are within 1.5-fold of each other.
To `C[C@@H]1COc2nc(OC3CC3)ncc2C(=O)N1C1CC2(C1)CN(S(=O)(=O)c1ccccc1F)C2` [Example 373] belongs 5 nM.
In turn, `CCOc1ncc2c(n1)OC[C@@H](C)N(C1CC3(C1)CN(S(=O)(=O)c1ccccc1F)C3)C2=O` [Example 374] gave an IC50 of 8 nM.
To `C[C@@H]1COc2nc(OC3CCOCC3)ncc2C(=O)N1C1CC2(C1)CN(S(=O)(=O)c1ccccc1F)C2` [Example 375] belongs 11 nM; to `C[C@@H]1COc2nc(O[C@@H]3CCOC3)ncc2C(=O)N1C1CC2(C1)CN(S(=O)(=O)c1ccccc1F)C2` [Example 376], 21 nM; to `C[C@@H]1COc2nc(O[C@H]3CCOC3)ncc2C(=O)N1C1CC2(C1)CN(S(=O)(=O)c1ccccc1F)C2` [Example 377], 14 nM.
To `C[C@@H]1COc2nc(N(C)C)ncc2C(=O)N1C1CC2(C1)CN(S(=O)(=O)c1ccccc1F)C2` [Example 380] belongs 3 nM; to `C[C@@H]1COc2nc(N3CCCC3)ncc2C(=O)N1C1CC2(C1)CN(S(=O)(=O)c1ccccc1F)C2` [Example 381], 2 nM.
